The test system of the test is Oxytricha Nova quadruplex (GGGGTTTTGGGG)2 (DNA, G4) GGGGTTTTGGGG
The test can be described thus: ITC. As to conditions: 10 mM sodium cacodylate, 0.5 mM EDTA, pH 7.0, 20 °C.

`NC[C@@H]1O[C@H](O[C@H]2[C@@H](O)[C@H](O[C@@H]3[C@@H](O)[C@H](N)C[C@H](N)[C@H]3O[C@H]3O[C@H](CN)[C@@H](O)[C@H](O)[C@H]3N)O[C@@H]2CO)[C@H](N)[C@@H](O)[C@@H]1O`: the Ka is, setting by setting: (K+ 90 mM) 1.15±0.08 × 10^5 M^−1; (Na+ 100 mM) 1.03±0.50 × 10^5 M^−1.

For `NC[C@@H]1O[C@H](O[C@H]2[C@@H](O)[C@H](O[C@@H]3[C@@H](O)[C@H](N)C[C@H](N)[C@H]3O[C@H]3O[C@H](CO)[C@@H](O)[C@H](O)[C@H]3N)O[C@@H]2CO)[C@H](N)[C@@H](O)[C@@H]1O`, under “K+ 90 mM”, the Ka was 0.45±0.01 × 10^5 M^−1.

(Values after paper PMC3641841 (2010).)
